Laboratory results as given in patent US12018023B2 (NERVIANO MEDICAL SCIENCES S.R.L., priority 2018, dated 2024).

How the values were obtained:
[1] = target: T1, IDH1^R132H homodimer enzyme (Homo sapiens, UniProt O75874, R132H); assay: NADPH depletion assay, IDH1 R132H; type: biochemical
T1 construct: purchased not specified
Description: (§1) IDH mutated enzyme activity converting alpha-ketoglutarate to 2-hydroxyglutaric acid is measured using a NADPH depletion assay. In the assay the remaining cofactor is measured at the end of the reaction with the addition of a catalytic excess of diaphorase and resazurin, to generate a fluorescent signal in proportion to the amount of NADPH remaining. IDH1 WT enzyme as well as mutated isoforms IDH1^R132H, IDH1^R132C, and IDH^2R172K enzymes are commercially available proteins (see e.g. Sino Biological, Abcam, Active Motif or Creative BioMart).
(§2) IDH1^R132H homodimer enzyme are diluted to 8 nM, in 10 μL of Assay Buffer (150 mM NaCl, 50 mM Tris-HCl pH 7.6, 10 mM MgCl2, 0.001% Triton X-100, 4 mM β-mercaptoethanol); 0.2 uL of test compound, previously serially diluted 1 to 3, >10 experimental points from 1 mM in DMSO, is added and the mixture is incubated for 15 minutes at room temperature. The reaction is started with the addition of 10 μL of Substrate Mix (12 uM NADPH, 3.4 mM alpha-ketoglutarate in Assay Buffer) and the mixture is incubated for 60 minutes at room temperature. The reaction is terminated with the addition of 5 μl of Detection Buffer (100 μg/mL diaphorase, 30 μM resazurin, in IX Assay Buffer), and is incubated for 15 minute before reading on a ViewLux as platereader at Ex544/Em590.

IDH1^R132C = target: T2, IDH1^R132C (Homo sapiens, UniProt O75874, R132C); assay: NADPH depletion assay, IDH1 R132C; type: biochemical
T2 construct: purchased not specified
T2 sequence (O75874 whole entry R132C): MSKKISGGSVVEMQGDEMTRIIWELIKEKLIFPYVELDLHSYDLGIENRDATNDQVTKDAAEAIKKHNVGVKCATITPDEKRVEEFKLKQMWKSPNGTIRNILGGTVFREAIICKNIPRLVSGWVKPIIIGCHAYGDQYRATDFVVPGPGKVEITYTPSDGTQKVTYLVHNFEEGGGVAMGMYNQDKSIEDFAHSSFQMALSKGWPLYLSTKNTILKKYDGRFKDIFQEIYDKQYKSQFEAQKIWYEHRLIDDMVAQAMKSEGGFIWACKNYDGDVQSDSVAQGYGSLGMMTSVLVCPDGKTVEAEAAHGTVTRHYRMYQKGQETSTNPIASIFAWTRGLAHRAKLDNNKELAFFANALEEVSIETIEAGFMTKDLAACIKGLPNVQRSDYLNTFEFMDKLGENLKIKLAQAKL
Description: as §1, §2
Compounds are assayed for their activity against IDH1^R132C following the same assay as above with the following modifications: IDH1^R132C and alpha-ketoglutarate final concentrations in the Assay Buffer is 2 nM and 0.14 mM, respectively.

T1 sequence (O75874 whole entry R132H): as the sequence (O75874 whole entry R132C) above, with C132H counted along it

| SMILES | IC50 [1] [nM] | IC50 (IDH1^R132C) [nM] |
| --- | --- | --- |
| C[C@H](Nc1ncc2ccc(=O)n(CC(C)(C)C)c2n1)c1nc(-c2ccc(Cl)cc2)no1 [cpd 52, 2-({(1S)-1-[3-(4-chlorophenyl)-1,2,4-oxadiazol-5-yl]ethyl}amino)-8-(2,2-dimethylpropyl)pyrido[2,3-d]pyrimidin-7(8H)-one] | 1760 | 786 |
| COC(=O)c1ccc([C@H](C)Nc2ncc3ccc(=O)n(Cc4ccccc4)c3n2)cc1 [cpd 1, Methyl 4-{(1S)-1-[(8-benzyl-7-oxo-pyrido[2,3-d]pyrimidin-2-yl)amino]ethyl}benzoate] | 1830 | 622 |
| C[C@H](Nc1ncc2ccc(=O)n(Cc3ccc(O)cc3)c2n1)c1ccc(Cl)cc1 [cpd 72, 2-{[(1S)-1-(4-chlorophenyl)ethyl]amino}-8-(4-hydroxybenzyl)pyrido[2,3-d]pyrimidin-7(8H)-one] | 2590 | 1240 |
| C[C@H](Nc1ncc2ccc(=O)n(CC(C)(C)C)c2n1)c1ccc(CN2CCCC2)cc1 [cpd 111, 8-(2,2-dimethylpropyl)-2-({(1S)-1-[4-(pyrrolidin-1-ylmethyl)phenyl]ethyl}amino)pyrido[2,3-d]pyrimidin-7(8H)-one] | 4040 | 1420 |
| CC(Nc1ncc2ccc(=O)n(CCF)c2n1)c1ccc(CN2CCC(F)(F)CC2)cc1 (centres unmarked) [cpd 100, 2-[(1-{4-[(4,4-difluoropiperidin-1-yl)methyl]phenyl}ethyl)amino]-8-(2-fluoroethyl)pyrido[2,3-d]pyrimidin-7(8H)-one] | 3060 | 1590 |
| Cc1nc(N[C@@H](C)c2ccc(Cl)cc2)nc2c1ccc(=O)n2CC(C)C [cpd 32, 2-{[(1S)-1-(4-chlorophenyl)ethyl]amino}-4-methyl-8-(2-methylpropyl)pyrido[2,3-d]pyrimidin-7(8H)-one] | 3770 | 1150 |
| CCN1CCN(c2ccc([C@H](C)Nc3ncc4ccc(=O)n([C@@H](C)C(C)C)c4n3)cc2)CC1 [cpd 177, 2-({(1S)-1-[4-(4-ethylpiperazin-1-yl)phenyl]ethyl}amino)-8-[(2S)-3-methylbutan-2-yl]pyrido[2,3-d]pyrimidin-7(8H)-one] | 978 | 401 |
| CC(C)(C)Cn1c(=O)ccc2cnc(NC3(c4ccccc4)CC3)nc21 [cpd 42, 8-(2,2-dimethylpropyl)-2-[(1-phenylcyclopropyl)amino]pyrido[2,3-d]pyrimidin-7(8H)-one] | 1380 | 951 |
| CC(C)(C)Cn1c(=O)ccc2cnc(NC(C)(C)c3ccccc3)nc21 [cpd 41, 8-(2,2-dimethylpropyl)-2-[(2-phenylpropan-2-yl)amino]pyrido[2,3-d]pyrimidin-7(8H)-one] | 2460 | 1410 |
| C[C@H](Nc1ncc2ccc(=O)n(CC(C)(C)C)c2n1)c1ccc(C(=O)NC2CC(F)(F)C2)cc1 [cpd 85, N-(3,3-difluorocyclobutyl)-4-[(1S)-1-{[8-(2,2-dimethylpropyl)-7-oxo-pyrido[2,3-d]pyrimidin-2-yl]amino}ethyl]benzamide] | 1770 | 1460 |
| COC(=O)c1ccc([C@H](C)Nc2ncc3ccc(=O)n(C(C)C)c3n2)cc1 [cpd 9, methyl 4-[(1S)-1-{[7-oxo-8-(propan-2-yl)-pyrido[2,3-d]pyrimidin-2-yl]amino}ethyl]benzoate] | 1530 | 604 |
| CC(C)[C@H](C)n1c(=O)ccc2cnc(N[C@@H](C)c3ccc(N4CCNCC4)cc3)nc21 [cpd 176, 8-[(2S)-3-methylbutan-2-yl]-2-({(1S)-1-[4-(piperazin-1-yl)phenyl]ethyl}amino)pyrido[2,3-d]pyrimidin-7(8H)-one] | 3510 | 1910 |

Stronger by IC50 [1], values ahead:

| IC50 [1] [nM] | IC50 (IDH1^R132C) [nM] | SMILES |
| --- | --- | --- |
| 941 | 529 | C[C@H](Nc1ncc2ccc(=O)n(Cc3ccccc3)c2n1)c1nc(-c2ccc(Cl)cc2)no1 [cpd 53, 8-benzyl-2-({(1S)-1-[3-(4-chlorophenyl)-1,2,4-oxadiazol-5-yl]ethyl}amino)pyrido[2,3-d]pyrimidin-7(8H)-one] |
| 666 | 104 | C=CC(=O)N1CCN(Cc2ccc([C@H](C)Nc3nc(NC)c4ccc(=O)n(CC(C)(C)C)c4n3)cc2)CC1 [cpd 202, 2-{[(1S)-1-{4-[(4-acryloylpiperazin-1-yl)methyl]phenyl}ethyl]amino}-8-(2,2-dimethylpropyl)-4-(methylamino) pyrido[2,3-d]pyrimidin-7(8H)-one] |
| 169 | 55 | C[C@@H]1CN(Cc2ccc([C@H](C)Nc3ncc4ccc(=O)n([C@@H](C)C5CC5)c4n3)cc2F)C[C@H](C)O1 [cpd 171, 8-[(1S)-1-cyclopropylethyl]-2-{[(1S)-1-(4-{[(2R,6S)-2,6-dimethylmorpholin-4-yl]methyl}-3-fluorophenyl)ethyl]amino}pyrido[2,3-d]pyrimidin-7(8H)-one] |
| 759 | 406 | C[C@@H]1CN(Cc2ccc([C@H](C)Nc3ncc4ccc(=O)n([C@@H](C)C(F)(F)F)c4n3)cc2)C[C@H](C)O1 [cpd 164, 2-{[(1S)-1-(4-{[(2R,6S)-2,6-dimethylmorpholin-4-yl]methyl}phenyl)ethyl]amino}-8-[(2S)-1,1,1-trifluoropropan-2-yl]pyrido[2,3-d]pyrimidin-7(8H)-one] |
| 160 | 71 | C[C@H](Nc1ncc2ccc(=O)n(CC(C)(C)C)c2n1)c1ccccc1 [cpd 40, 8-(2,2-dimethylpropyl)-2-{[(1S)-1-phenylethyl]amino}pyrido[2,3-d]pyrimidin-7(8H)-one] |
| 126 | 89 | CC(C)[C@H](C)n1c(=O)ccc2cnc(N[C@@H](C)c3ccc(C4=CCN(C(=O)OC(C)(C)C)CC4)cn3)nc21 [cpd 193, tert-butyl 6-[(1S)-1-({8-[(2S)-3-methylbutan-2-yl]-7-oxo-7,8-dihydropyrido[2,3-d]pyrimidin-2-yl}amino)ethyl]-3′,6′-dihydro-3,4′-bipyridine-1′(2′H)-carboxylate] |
| 420 | 173 | C=CC(=O)N1CCN(Cc2ccc([C@H](C)Nc3nc(OCC)c4ccc(=O)n(CC(C)(C)C)c4n3)cc2)CC1 [cpd 201, 2-{[(1S)-1-{4-[(4-acryloylpiperazin-1-yl)methyl]phenyl}ethyl]amino}-8-(2,2-dimethylpropyl)-4-ethoxypyrido[2,3-d]pyrimidin-7(8H)-one] |
| 290 | 123 | CCOC(=O)C(C)n1c(=O)ccc2cnc(N[C@@H](C)c3ccc(CN4CCCC(F)(F)C4)cc3)nc21 (stereo partly drawn) [cpd 63, ethyl 2-[2-{[(1S)-1-{4-[(3,3-difluoropiperidin-1-yl)methyl]phenyl}ethyl]amino}-7-oxopyrido[2,3-d]pyrimidin-8(7H)-yl]propanoate] |
| 138 | 97 | C[C@H](Nc1ncc2ccc(=O)n(CC(C)(C)C)c2n1)c1ccc(C(=O)NC2CCC(F)(F)CC2)c(Cl)c1 [cpd 88, 2-chloro-N-(4,4-difluorocyclohexyl)-4-[(1S)-1-{[8-(2,2-dimethylpropyl)-7-oxo-7,8-dihydropyrido[2,3-d]pyrimidin-2-yl]amino}ethyl]benzamide] |
| 461 | 190 | COc1ccc([C@H](C)Nc2ncc3ccc(=O)n(CC(C)(C)C)c3n2)cc1 [cpd 33, 8-(2,2-dimethylpropyl)-2-{[(1S)-1-(4-methoxyphenyl)ethyl]amino}pyrido[2,3-d]pyrimidin-7(8H)-one] |
